Series [1] is described as follows: Body weights and clinical observations in the rat single dose decorporation study. The format is in vivo, Sprague Dawley rat. As to conditions: iv Ca-DTPA 14 mg/kg, ad libitum; for Mean body weight: in g (unit assumed). From the text: Each rat was weighed at contamination (Day 0) and the terminal body weight (Day 7) was taken at necropsy.
Series [2] is described as follows: Protonation constants by potentiometric titration. It is filed as physicochemical. As to conditions: 5 mM ligand in 0.15 M KCl. As for the experimental part: The protonation constants for C2E2 were determined by preparing a 5 mM solution of free ligand in 0.15 M KCl. The constants were calculated from three replicates, with each experiment consisting of a titration with acid, followed by a titration with base. After each addition of titrant, a 30 second equilibration time passed before pH measurement with a Seven Easy pH meter and (Ag/AgCl reference) glass electrode (Metler Tolledo). At the end of the titrations, the presence of C2E2 was confirmed by HPLC-CAD. Evaluation of the titration curve for C2E2 (FIG. 31) identified 6 pKa values that correspond with the three tertiary amines and three carboxylic acids. The values were determined by refinement using […] software. The pKa values determined for C2E2 are consistent with DTPA analogues previously investigated for use as MRI contrast agents with two carboxylic acids are functionalized such as DTPA-BMA and DTPA-BBA (Rizkalla, E. N., et al., Inorganic Chemistry, 32, 582-586, (1993) and Geraldes C. F., et al., Journal of the Chemical Society-Dalton Transactions, 327-335 (1995)).

Series [3] can be described thus: Stability study in water (pH and precipitation of solubility samples). The format is physicochemical. As to conditions: for Precipitation on storage (observation): room temperature, 4° C., −20° C. As for the experimental part:
Method 2 was used to prepare the C2E2 for the dosing formulations. Specifically, Lots 050 and 005-2 were prepared using Method 2, whereas the Reference standard and MTD Lot were prepared using Method 1. For the dosing formulations, de-ionized water (DI water tap in room 18/19) was used with the C2E2 prepared using Method 2. The dosing formulations were compared with C2E2 formulations prepared using Milli-Q water. The pH of each sample was recorded and the values are listed below in Table 2.
In order to re-create the unusual solutions, 1-mL samples of C2E2 (Lots 005-2 and 050; MTD Lot; and Reference std) were made at concentrations of 100 mg/mL in Milli-Q water. A set of samples was stored at room temperature, in the refrigerator (4° C.), and in the −20° C. freezer. […] Storage at 4° C. exacerbates the precipitation of Lot 050. After 8 days, both the Reference Standard and Lot 050 have significant amounts of solid detected at 4° C. and room temperature and crystals have started to form. […] While not wishing to be bound to any particular theory, this is likely because more impurities increase the solubility.

Series [4] is described as follows: Polymorph stability (DSC, competitive ripening, storage). It is filed as physicochemical. To be noted: higher melting point, lower solubility. Here is the method: Samples of C2E2 (˜5 mg) were crimped and evaluated by DSC over a range of 25° C. to 320° C. with a heating rate of 10.00° C./min. A sample was also cycled three times from 25 to 150° C. with a heating rate of 10° C./min and a cooling rate of 5° C./min. Both the MTD Lot and the Reference Standard show a melting point near 120° C. Lot 050 has a melting point of about 140° C.
50 mg each of Lot 050 and the Reference standard were combined in 500 μL of water and stirred at room temperature overnight. After stirring, the remaining solid was filtered from the liquid, allowed to dry and analyzed by DSC.

For series [5] the following is noted: comparison values; cited from earlier work.
Series [6] relates to ^241Am contaminated rats. Put plainly: Once vs twice daily dosing ^241Am decorporation study in rats. The format is in vivo, Sprague Dawley rat. As to conditions: Zn-DTPA 13.3 mg/kg intravenous daily x5, male rats, seven days after IM ^241Am. Here is the method:
The animal study was conducted according to a protocol approved by The University of North Carolina at Chapel Hill Institutional Animal Care and Use Committee. Sixteen male Sprague Dawley rats were contaminated with ^241Am(NO3)3 (0.25 μCi) by intramuscular injection (0.1 mL, 0.1 M HNO3) into the right hind leg, under isoflurane anesthesia. Immediately after injection, body weights were recorded (Day 0 weight) and animals placed in individual metabolic cages. The 16 rats were assigned to four groups; untreated control, 5 daily oral gavage doses of 600 mg/kg C2E2 once daily, 5 days of oral gavage treatment of 300 mg/kg C2E2 twice daily or 5 daily intravenous doses of Zn-DTPA solution (13.3 mg/kg) via a jugular vein catheter. The C2E2 was from Lot 050 obtained using Method 2. The C2E2 dosing solution utilized was a 10% w/w solution in water. […] Excreted urine and feces were collected at 2, 4, 8, 10, 12, 14, 18, 20 and 24 hours after the first dose and daily for the remainder of the study. The samples were transferred to 20 mL scintillation vials, weighed and placed in a gamma counter (Wizard2 2480, Perkin Elmer) for detection of ^241Am gamma activity. In addition, following necropsy, selected tissues were removed, weighed and placed in a gamma counter (Wizard2 2480, Perkin Elmer) for detection of ^241Am gamma activity. The total amount of ^241Am administered to the animals was determined by quantifying the 59.7 keV photons emitted by ^241Am in duplicate aliquots (100 μL) of the injection solution using a gamma counter (wizard series, Perkin-Elmer). A counting window from 40-80 keV and a 60-second counting time were used for acquisition and each reading was corrected for background at acquisition. All experimental tissues and samples were counted using the same gamma counter and protocol. For all the samples, ^241Am content was expressed as a percentage of the initial dose. The femur from the leg opposite to the injection site was scaled by a factor of 20 to estimate total skeletal ^241Am burden.

Series [7] relates to ^241Am contaminated rats. As to the kind of experiment: C2E2 single dose ^241Am decorporation in rats (IM contamination). As to conditions: DTPA 14 mg/kg IV, ad lib; single dose 24 h after IM ^241Am, 7 days, female rats. The format is in vivo, Sprague Dawley rat. Here is the method:
This study was to assess the efficacy of a single oral gavage dose of C2E2 in ^241Am contaminated rats. A 200 μL aliquot was withdrawn from a stock solution of ^241Am nitrate (0.1 mCi in 5 mL 1 M HNO3), evaporated to dryness, dissolved in concentrated HNO3 (15 M, 5 mL) then evaporated to dryness and dissolved in dilute HNO3 (0.1 M, 8 mL) to form the injection solution. Groups of 4 female Sprague-Dawley rats were contaminated with 250 nCi of ^241Am nitrate by IM injection ([…]) then were administered single doses of C2E2 by gavage at 200, 600, or 1000 mg/kg under ad lib feeding conditions utilizing a 10% w/w solution in sterile water (dose volumes were 2, 6, and 10 mL/kg, for the 200, 600, and 1000 mg/kg doses, respectively). For the fasted component of the study, the animals were fasted 24 hours before treatment then for 2 hours post drug administration. Control groups with ad lib access to food and water were either untreated or administered an IV dose of the calcium salt of DTPA (Ca-DTPA) at 14 mg/kg (target dose volume of 0.7 mL/kg and concentration of 20 mg/mL). Treatment was administered 1 day after contamination. All animals were euthanized 7 days after contamination and the following tissues were collected: liver, both kidneys, both femurs as well as the ipsilateral and the contralateral hind leg muscle tissue and the pelt from the injection site. Urine and feces were collected from the time of contamination through euthanasia. Cage washings were also collected at the end of the study and considered part of total urine collection. Two aliquots (100 μL) of the injection solution were removed and ^241Am gamma activity was determined using radiomatic detection. The average of these standards is the injected dose used for all animals. All tissues and samples were counted in a similar manner. Americium content was expressed as a percentage of the injected dose. Overall recovery of radioactivity across all groups in this study was approximately 90%. […] The primary route by which both DTPA and C2E2 enhanced elimination of ^241Am occurred was by urinary clearance. […] Fecal clearance of ^241Am was not altered by feeding status, an observation that is consistent with the similar liver burden between the two groups at the end of the study. […] As with DTPA, enhanced decorporation by C2E2 occurred through enhanced urinary clearance.
Male and female Sprague Dawley rats (n=4/gender/dose) were administered single oral doses of diethylenetriaminepentaacetic acid diethyl ester (C2E2) by gavage 24 hours after intramuscular contamination with ^241Am(NO3)3 (250 nCi) under ad libitum and fasted conditions. Animals received single oral nominal doses of 200, 600, or 1000 mg/kg C2E2. Untreated animals and animals treated with an intravenous dose of Ca-DTPA ([…]) 24 hours after contamination served as controls; only ad libitum conditions were used for control animals. Total radionuclide decorporation and radionuclide tissue burden were evaluated seven days after contamination.
Male and female Sprague Dawley rats were contaminated with ^241Am(NO3)3 (0.25 μCi) by intramuscular injection (0.1 mL, 0.1 M HNO3) into the right hind leg, under isoflurane anesthesia. Immediately after injection, body weights were recorded (Day 0 weight) and animals were placed in individual metabolic cages.
Approximately eight hours after contamination—and 16 hours before test article administration—rats assigned to the Fasted groups had access to food restricted by removing the food chamber from their metabolic cages and collecting all loose chow from their housing chambers. Food chambers were replaced 1 hour after oral gavage treatment, restoring access to food. At all other times all animals had ad libitum access to food.
Male and female Sprague-Dawley rats assigned to test groups each received a single oral gavage dose of 0, 200, 600, or 1000 mg/kg of C2E2 utilizing a 10% w/w solution in water 24 hours after contamination. […]

For `O=C([O-])CN(CCN(CC(=O)[O-])CC(=O)[O-])CCN(CC(=O)[O-])CC(=O)[O-].[Ca+2].[Na+].[Na+].[Na+]` [Ca-DTPA, reference compound], the “Mean Percentage Body Weight Change” value is listed as −0.1 ± 1.9% in series [1] (Female) and 4.5 ± 6.1% in series [1] (Male). In addition, the Mean body weight is 273.6 ± 7.7 in series [1] (female rats, Day 0); 273.3 ± 11.2 in series [1] (female rats, Day 7 (terminal)); 301.0 ± 4.0 in series [1] (male rats, Day 0); 314.6 ± 20.4 in series [1] (male rats, Day 7 (terminal)).

Turning to `CCOC(=O)CN(CCN(CCN(CC(=O)O)CC(=O)O)CC(=O)O)CC(=O)O` [C2E1], in series [2], the PKa2 is listed as 2.99 ± 0.05, the pKa1 turned out to be 6.35, the pKa3 is 1.72 ± 1.5 and the pKa4 came to 1.18 ± 0.45. In series [2], this compound displayed a pKa5 of less than 1.5 and a pKa6 of less than 1.5.

Take `CCOC(=O)CN(CCN(CCN(CC(=O)O)CC(=O)OCC)CC(=O)O)CC(=O)O` [Lot 050, 6,9-bis(carboxymethyl)-3-(2-ethoxy-2-oxoethyl)-11-oxo-12-oxa-3,6,9-triazatetradecan-1-oic acid]: the results for the “pH of formulations prepared using de-ionized water” value in series [3] (20 mg/mL), in series [3] (60 mg/mL) and in series [3] (100 mg/mL) were 3.04, 2.93 and 2.93, respectively. Also, in series [3] (100 mg/mL), the “pH of formulations prepared using Milli-Q water” value (shortened to “pH … using Milli-Q water”) stood at 2.60. For the same compound, in series [3] (100 mg/mL in Milli-Q water), the “Precipitation on storage (observation)” value is “begins to come out of solution after three days”. In addition, in series [4], the “Relative stability of polymorph” value was “most stable”.

For `O=C(O)CN(CCN(CC(=O)O)CC(=O)O)CC(=O)O` [EDTA], the “Stability of the gadolinium complex, log K” value in series [5] is given as 17.0.

Take `CCOC(=O)CN(CCN(CCN(CC(=O)O)CC(=O)OCC)CC(=O)O)CC(=O)O` [Lot 005-2, 6,9-bis(carboxymethyl)-3-(2-ethoxy-2-oxoethyl)-11-oxo-12-oxa-3,6,9-triazatetradecan-1-oic acid]: the “pH … using Milli-Q water” value in series [3] (100 mg/mL) is given as 2.54. Moreover, in series [3] (100 mg/mL in Milli-Q water), the “Precipitation on storage (observation)” value was “do not come out of solution”.

In the case of `O=C([O-])CN(CCN(CC(=O)[O-])CC(=O)[O-])CCN(CC(=O)[O-])CC(=O)[O-].[Na+].[Na+].[Na+].[Zn+2]` [i.v. Control, reference compound], the “Total Decorporation” value in the series on ^241Am contaminated rats [6] was 54.0 ± 3.9 % of injected dose.

Turning to “diethylenetriamine pentaacetic acid [DTPA]”, in the series on ^241Am contaminated rats [7], the “Cage Wash ^241Am” value came out at 3.6 ± 0.8%, the “Feces ^241Am” value came to 10.3 ± 1.7%, the Liver burden came to 12.3 ± 1.2 % injected and the “Total Decorporation” value was 36.1 ± 4.6 % injected. In addition, in the series on ^241Am contaminated rats [7], the “Urine ^241Am” value worked out at 22.1 ± 2.6%. In addition, in series [5], the “Stability of the gadolinium complex, log K” value is listed as 22.5.

`CCOC(=O)CN(CCN(CCN(CC(=O)O)CC(=O)OCC)CC(=O)O)CC(=O)O` [MTD Lot, 6,9-bis(carboxymethyl)-3-(2-ethoxy-2-oxoethyl)-11-oxo-12-oxa-3,6,9-triazatetradecan-1-oic acid]: in series [3] (100 mg/mL), the “pH … using Milli-Q water” value is recorded as 2.35. Further, in series [3] (100 mg/mL in Milli-Q water), the “Precipitation on storage (observation)” value is “do not come out of solution”.

As to `CCOC(=O)CN(CCN(CCN(CC(=O)O)CC(=O)OCC)CC(=O)O)CC(=O)O` [Reference Standard, 6,9-bis(carboxymethyl)-3-(2-ethoxy-2-oxoethyl)-11-oxo-12-oxa-3,6,9-triazatetradecan-1-oic acid], the “Time at which material starts to precipitate” value in series [3] (100 mg/mL in Milli-Q water, regardless of storage temperature) was no more than 24 h. The “pH … using Milli-Q water” value in series [3] (100 mg/mL, listed as Purified C2E2 (Reference std)) amounted to 2.43.

The record behind these values is patent US9546129B2, “DTPA prodrugs, compositions thereof, and methods of using the same” (priority 2012, dated 2017).
